Patent US20230295197A1, “STAT5 and STAT6 Degraders and Uses Thereof” (REGENTS OF THE UNIVERSITY OF MICHICAN, priority 2022, published 2023)
Where two headings read alike, the source gives them in different places.

Target: T1, STAT6 (Homo sapiens, UniProt P42226)
T1 construct: endogenous in cells; host or cells: MOLM-16, KU-812, SKNO1, MB231, L1236
T1 sequence (P42226 1-847): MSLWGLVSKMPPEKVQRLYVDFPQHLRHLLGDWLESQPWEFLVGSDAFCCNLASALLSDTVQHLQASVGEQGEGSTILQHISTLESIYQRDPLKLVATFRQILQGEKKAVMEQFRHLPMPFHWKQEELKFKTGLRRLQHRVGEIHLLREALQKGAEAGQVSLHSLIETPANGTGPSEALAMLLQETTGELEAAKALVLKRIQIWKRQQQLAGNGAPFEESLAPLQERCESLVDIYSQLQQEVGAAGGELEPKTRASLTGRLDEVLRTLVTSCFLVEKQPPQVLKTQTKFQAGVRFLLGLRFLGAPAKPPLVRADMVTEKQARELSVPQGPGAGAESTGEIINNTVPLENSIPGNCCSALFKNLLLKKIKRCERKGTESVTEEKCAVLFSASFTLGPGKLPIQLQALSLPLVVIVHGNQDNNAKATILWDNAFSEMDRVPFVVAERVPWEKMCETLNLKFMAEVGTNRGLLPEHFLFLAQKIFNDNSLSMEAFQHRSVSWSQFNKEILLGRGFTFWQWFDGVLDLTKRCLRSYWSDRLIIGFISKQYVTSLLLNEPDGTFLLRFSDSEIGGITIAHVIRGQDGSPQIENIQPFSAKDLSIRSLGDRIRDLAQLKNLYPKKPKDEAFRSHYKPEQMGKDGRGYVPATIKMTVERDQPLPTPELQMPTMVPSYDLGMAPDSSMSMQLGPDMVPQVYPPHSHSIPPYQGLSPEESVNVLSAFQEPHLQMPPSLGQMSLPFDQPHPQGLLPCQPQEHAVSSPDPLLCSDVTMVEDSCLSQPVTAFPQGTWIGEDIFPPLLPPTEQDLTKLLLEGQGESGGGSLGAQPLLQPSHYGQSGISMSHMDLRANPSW
Test: Immunoblotting (Western blot) analysis of STAT6 degradation efficiency of degraders in treated cells
Type: cell-based
In short: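 Degradation read by quantitative near-infrared Western blot: equal protein loads (20-40 μg) from compound-treated versus untreated cells, probed overnight at 4° C. for STAT5 or STAT6 with GAPDH reference. Compound concentrations and exposure times as indicated; cells grown in medium with 10% FBS at 37° C.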

[1] = MOLM-16 cells, class symbols, read-out: DC50 S6 MOLM-16
[2] = L1236 cells, read-out: DC50 S6 L1236

DC50 (MOLM-16 cells, numeric bound, read-out: DC50 S6 MOLM-16) [µM]	Structure (SMILES)	DC50 [1] [µM]	DC50 [2] [µM]
	CC(C)(C)[C@H](NC(=O)c1cc2cc(C(F)(F)P(=O)(O)O)ccc2s1)C(=O)N1Cc2cc(OCC(=O)NCCCCCC#Cc3ccc4c(c3)C(=O)N(C3CCC(=O)NC3=O)C4=O)ccc2C[C@H]1C(=O)N1CCC[C@H](c2ccccc2)C1 (stereo partly drawn) [Compound 558, ((2-(((2S)-1-((3S)-7-(2-((7-(2-(2,6-dioxopiperidin-3-yl)-1,3-dioxoisoindolin-5-yl)hept-6-yn-1-yl)amino)-2-oxoethoxy)-3-((R)-3-phenylpiperidine-1-carbonyl)-3,4-dihydroisoquinolin-2(1H)-yl)-3,3-dimethyl-1-oxobutan-2-yl)carbamoyl)benzo[b]thiophen-5-yl)difluoromethyl)phosphonic acid]	> 10	
	Cc1ncsc1-c1ccc([C@H](C)NC(=O)[C@@H]2C[C@@H](O)CN2C(=O)[C@@H](NC(=O)CCCCCNC(=O)COc2ccc3c(c2)CN(C(=O)[C@@H](NC(=O)c2cc4cc(C(F)(F)P(=O)(O)O)ccc4s2)C(C)(C)C)[C@H](C(=O)N2CCC[C@H](c4ccccc4)C2)C3)C(C)(C)C)cc1 [Compound 474, (difluoro(2-(((S)-1-((S)-7-(2-((6-(((S)-1-((2S,4R)-4-hydroxy-2-(((S)-1-(4-(4-methylthiazol-5-yl)phenyl)ethyl)carbamoyl)pyrrolidin-1-yl)-3,3-dimethyl-1-oxobutan-2-yl)amino)-6-oxohexyl)amino)-2-oxoethoxy)-3-((R)-3-phenylpiperidine-1-carbonyl)-3,4-dihydroisoquinolin-2(1H)-yl)-3,3-dimethyl-1-oxobutan-2-yl)carbamoyl)benzo[b]thiophen-5-yl)methyl)phosphonic acid]	> 10	
> 0.3	CC(C)(C)[C@H](NC(=O)c1cc2cc(C(F)(F)P(=O)(O)O)ccc2s1)C(=O)N1C[C@@H](OCCCCCCCCCCC#Cc2cccc3c2CN(C2CCC(=O)NC2=O)C3=O)C[C@H]1C(=O)N1CCO[C@H](c2ccccc2)C1 (stereo partly drawn) [Compound 585, ((2-(((2S)-1-((2S,4S)-4-((12-(2-(2,6-dioxopiperidin-3-yl)-1-oxoisoindolin-4-yl)dodec-11-yn-1-yl)oxy)-2-((R)-2-phenylmorpholine-4-carbonyl)pyrrolidin-1-yl)-3,3-dimethyl-1-oxobutan-2-yl)carbamoyl)benzo[b]thiophen-5-yl)difluoromethyl)phosphonic acid]		> 10
	CC(C)(C)[C@H](NC(=O)c1cc2cc(C(F)(F)P(=O)(O)O)ccc2s1)C(=O)N1Cc2cc(OCC(=O)NCCCCCC#Cc3cccc4c3C(=O)N(C3CCC(=O)NC3=O)C4=O)ccc2C[C@H]1C(=O)N1CCO[C@H](c2ccccc2)C1 (stereo partly drawn) [Compound 543, ((2-(((2S)-1-((3S)-7-(2-((7-(2-(2,6-dioxopiperidin-3-yl)-1,3-dioxoisoindolin-4-yl)hept-6-yn-1-yl)amino)-2-oxoethoxy)-3-((R)-2-phenylmorpholine-4-carbonyl)-3,4-dihydroisoquinolin-2(1H)-yl)-3,3-dimethyl-1-oxobutan-2-yl)carbamoyl)benzo[b]thiophen-5-y)difluoromethyl)phosphonic acid]	> 10	
	Cc1ncsc1-c1ccc([C@H](C)NC(=O)[C@@H]2C[C@@H](O)CN2C(=O)[C@@H](NC(=O)CCCNC(=O)CC(=O)N2CCN(C(=O)[C@@H](NC(=O)c3cc4cc(C(F)(F)P(=O)(O)O)ccc4s3)C(C)(C)C)[C@H](C(=O)N3CCC[C@H](c4ccccc4)C3)C2)C(C)(C)C)cc1 [Compound 454, (difluoro(2-(((S)-1-((S)-4-(3-((4-(((S)-1-((2S,4R)-4-hydroxy-2-(((S)-1-(4-(4-methylthiazol-5-yl)phenyl)ethyl)carbamoyl)pyrrolidin-1-yl)-3,3-dimethyl-1-oxobutan-2-yl)amino)-4-oxobutyl)amino)-3-oxopropanoyl)-2-((R)-3-phenylpiperidine-1-carbonyl)piperazin-1-yl)-3,3-dimethyl-1-oxobutan-2-yl)carbamoyl)benzo[b]thiophen-5-yl)methyl)phosphonic acid]	> 10	> 10
